Experimental data as given in patent US5872107A, “Treatment of urogenital cancer with boron neutron capture therapy” (Emory University, priority 1997, dated 1999).

How the values were obtained:
[1] = Toxicity study: weight change and survival of normal Swiss mice; format: in vivo, Swiss female mice; settings: 30 mg/kg/day i.p.
Method: A toxicity study was conducted on 6-week-old Swiss female mice treated with CDU and CFAU at 30 mg/kg/day. The compounds were prepared in sterile DMSO and injected intraperitoneally (0.1 mL). DMSO and water were used as controls, with the same injection volume as that used for the CDU and CFAU solutions. The dosing schedule used was once a day for 6 days, and the mice were weighed biweekly for 28 days. Results shown in Table 3 somewhat correlate with the cytotoxicity assays in vitro.

[2] = typical nucleoside analogues; cited from earlier work

| Compound | weight loss after 1 week (in words) ([1]; CFAU and CDU compared) | relative toxicity as monitored by survival outcome (in words) ([1]; CFAU versus CDU) | day of death of mouse ([1]; one mouse of five) [days] | weight recovery at 4 weeks (in words) ([1]; surviving animals) | % of weight gained or lost on week 1 ([1]; week 1, once a day for 6 days) [%] | % of weight gained or lost on week 2 ([1]; week 2, once a day for 6 days) [%] | % of weight gained or lost on week 3 ([1]; week 3, once a day for 6 days) [%] | % of weight gained or lost on week 4 ([1]; week 4, once a day for 6 days) [%] | survival at week 4, alive/total ([1]; week 4, once a day for 6 days) | survival at week 4 (%) ([1]; week 4, once a day for 6 days, 40320 min) | reabsorption by the renal tubule (in words) [2] |
| --- | --- | --- | --- | --- | --- | --- | --- | --- | --- | --- | --- |
| 5-o-carboranyl-1-(2-deoxy-2-fluoro-β-D-arabinofuranosyl)uracil [CFAU] | comparable weight loss after 1 week | more toxic than CDU | 7 | all the surviving animals recovered their weight loss to control untreated levels | -6.8 | -0.4 | 5.0 | 9.6 | 4/5 | 80 | – |
| Cc1cn([C@H]2C[C@H](N=[N+]=[N-])[C@@H](CO)O2)c(=O)[nH]c1=O [AZT, 3'-azido-3'-deoxythymidine] | – | – | – | – | – | – | – | – | – | – | not reabsorbed appreciably by the renal tubule |
| [N-]=[N+]=N[C@H]1C[C@H](n2ccc(=O)[nH]c2=O)O[C@@H]1CO [AZddU, 3'-azido-2',3'-dideoxyuridine] | – | – | – | – | – | – | – | – | – | – | not reabsorbed appreciably by the renal tubule |
